US12233107B2, “GHRH or analogues thereof for use in treatment of hepatic disease” (The General Hospital Corporation, priority 2019, dated 2025)

Legend:
[1] = system: HIV-infected subjects with NAFL/NASH; set-up: species or system human; details: in vivo
Procedure: The study consisted of a 12-month, double-blind treatment phase during which participants were randomized in a 1:1 ratio receive to tesamorelin 2 mg daily or identical placebo, followed by a 6-month open label phase during which all participants receive tesamorelin. The pre-specified primary analysis, comparing changes over twelve months in tesamorelin vs. placebo treatment, is reported here. Randomization was stratified by site (NIH and MGH) and vitamin E use, defined as consistent use of ≥400 international units daily. The randomization list was prepared by the study statistician using a permuted block algorithm within each stratum with randomly varying block sizes. […] IGF-1 Z-scores were monitored throughout the study by an independent endocrinologist at MGH otherwise unaffiliated with the study. […]
Laboratory analyses were conducted using standard methodologies. Clinical labs were measured at the NIH Clinical Laboratory and, for MGH, at LabCorp and Quest. IGF-1 was measured centrally at Quest Laboratories. C-reactive protein was measured using electrochemiluminescense (Meso Scale Discovery, Rockville, MD), and adiponectin was measured using ELISA (R&D Systems, Minneapolis, MN).
Per the pre-specified analysis plan, change in HFF was assessed by random intercept mixed effects modeling using restricted maximum likelihood to assess the effect estimate for the time×randomization interaction. […]

[2] = system: HIV-infected subjects with NAFL/NASH; details: in vivo
[3] = system: HIV-infected subjects with NAFL/NASH; set-up: species or system human; details: in vivo; remark: listed apart in the source
Procedure: Participants at MGH also underwent a euglycemic hyperinsulinemic clamp procedure to assess insulin sensitivity. After a 14-hour overnight fast, a low-dose (insulin 20 mU/m^2/min) clamp for 2 hours was followed by a high-dose (insulin 80 mU/m^2/min) clamp for 2 hours as previously described (Braun L R, et al. Effects of Pitavastatin on Insulin Sensitivity and Liver Fat: A Randomized Clinical Trial. J Clin Endocrinol Metab 2018; 103:4176-86). Insulin stimulated glucose disposal (M) were calculated during the last 20 minutes of low-dose and high-dose clamp using the DeFronzo method (DeFronzo R A, Tobin J D, Andres R. Am J Physiol 1979; 237:E214-23) as the primary indices of hepatic and whole-body insulin sensitivity, respectively.

[4] = system: patients with HIV-associated NAFLD; details: Ajmera et al., Hepatology 2019; cited from earlier work
[5] = system: patients with primary NAFLD; details: cited from earlier work
[6] = system: NASH in the general population; details: cited from earlier work

For CC/C=C/CC(=O)N[C@@H](Cc1ccc(O)cc1)C(=O)N[C@@H](C)C(=O)N[C@@H](CC(=O)O)C(=O)N[C@@H](C)C(=O)N[C@H](C(=O)N[C@@H](Cc1ccccc1)C(=O)N[C@H](C(=O)N[C@@H](CC(N)=O)C(=O)N[C@@H](CO)C(=O)N[C@@H](Cc1ccc(O)cc1)C(=O)N[C@@H](CCCNC(=N)N)C(=O)N[C@@H](CCCCN)C(=O)N[C@H](C(=O)N[C@@H](CC(C)C)C(=O)NCC(=O)N[C@@H](CCC(N)=O)C(=O)N[C@@H](CC(C)C)C(=O)N[C@@H](CO)C(=O)N[C@@H](C)C(=O)N[C@@H](CCCNC(=N)N)C(=O)N[C@@H](CCCCN)C(=O)N[C@@H](CC(C)C)C(=O)N[C@@H](CC(C)C)C(=O)N[C@@H](CCC(N)=O)C(=O)N[C@@H](CC(=O)O)C(=O)N[C@H](C(=O)N[C@@H](CCSC)C(=O)N[C@@H](CO)C(=O)N[C@@H](CCCNC(=N)N)C(=O)N[C@@H](CCC(N)=O)C(=O)N[C@@H](CCC(N)=O)C(=O)NCC(=O)N[C@@H](CCC(=O)O)C(=O)N[C@@H](CO)C(=O)N[C@@H](CC(N)=O)C(=O)N[C@@H](CCC(N)=O)C(=O)N[C@@H](CCC(=O)O)C(=O)N[C@@H](CCCNC(=N)N)C(=O)NCC(=O)N[C@@H](C)C(=O)N[C@@H](CCCNC(=N)N)C(=O)N[C@@H](C)C(=O)N[C@@H](CCCNC(=N)N)C(=O)N[C@@H](CC(C)C)C(N)=O)[C@@H](C)CC)C(C)C)[C@@H](C)O)[C@@H](C)CC [Tesamorelin, trans-3-hexenoyl-GHRH(1-44)-NH2], the fasting glucose [1] was “did not significantly affect”, the “hemoglobin A1c” value [1] was “did not significantly affect” and the Any adverse event [2] was 29. The Arthralgia [2] was 3, the Hyperglycemia [2] was 12 and the Injection site bruising [2] was 11. The Injection site erythema [2] was 3, the Injection site stinging [2] was 4 and the Myalgia [2] was 2. The Other adverse events [2] was 25, the Other infection [2] was 7 and the “Other injection site complaints” value [2] was 10. For the same compound, the Paresthesia [2] was 2, the URI [2] was 5 and the discontinuations for hyperglycemia [2] was “two”. The “relation of serious adverse events to study drug” value [2] was “None were judged as related to study drug”, the “treatment effect for high-dose M (insulin stimulated glucose uptake, high-dose clamp)” value [3] was −0.9 and the “treatment effect for low-dose M (glucose infusion rate, low-dose clamp)” value [3] was 0.0 mg/kg/min.

In the case of CCCCCCCCCCCCCCCCCCCC(=O)N[C@H]1CC[C@@]2(C)[C@@H](C1)C[C@@H](O)[C@@H]1[C@@H]2C[C@H](O)[C@]2(C)[C@@H]([C@H](C)CCC(=O)O)CC[C@@H]12 [aramchol], the “effect in patients with HIV-associated NAFLD” value [4] is given as “no significant effect” and the hepatic-fat content [5] is given as “reduce”.

For Vitamin E, the “histological features of NASH” value [6] is listed as “improve”.
